From US4977273A, “Fluorine-containing 2-nitroimidazole derivatives” (Kyoto University of Honmachi, priority 1988, dated 1990)

What was measured:
[1] = system: Chinese hamster V-79 cells; assay: Radiosensitization effect on cells (ER in vitro); type: cell-based; details: 1.0 mM, 60 min at 37° C., nitrogen (hypoxic), X-ray 1.6 Gy/min
Method: Radiosensitization effect on cells (ER in vitro)
A solution of a predetermined concentration (1.0 mM) of a compound to be examined in a medium was added to the dish. After standing for 60 minutes at 37° C., the dish was placed in a closed vessel at room temperature.
After the irradiation, the cells were washed with phosphate buffer and digested with trypsin into single cells. Then, a predetermined amount of the cells was introduced into 5 ml of a culture medium in a culture dish and cultured for 7 days at 37° C. After staining and washing with water, the number of colonies formed was counted.
For comparison, the irradiation was carried out in the nitrogen atmosphere or in the air after adding the medium without the test compound.

[2] = in vivo; details: mouse, female ICR mice of 5 weeks
[3] = system: EMT-6 tumor cells; assay: Radiosensitization effect on tumor transplanted in animal (ER in vivo); parameters: species or system male Bal/c mouse; details: EMT-6 tumor in mouse, 100 mg/kg intraperitoneal, X-ray after 40 minutes at 450 rad/min. for 5 minutes
Method: Radiosensitization effect on tumor transplanted in animal (ER in vivo)
To both thighs of male Bal/c mouse (8 weeks; 4 mice in a group), 10^5 of EMT-6 tumor cells were subcutaneously inoculated. After the diameter of the tumor reached about 1 cm, a solution of a compound to be examined in saline in an amount of 100 mg of the compound per kg was intraperitonealy administered. After 40 minutes, X-ray was irradiated at 450 rad/min. for 5 minutes and then the mouse was sacrificed.
After the whol body of the mouse was sterilized with 70% ethanol, the tumor was taken out. The tissue was homogenized and then digested by stirring for 50 minutes at 37° C. with adding 22 ml of trypsin. The number of cells in the supernatant was counted. A predetermined amount of the cells was introduced in a plastic plate having a diameter of about 5 cm. To the plate, 5 ml of medium was added and cultured in a CO2 incubator. The plate containing the irradiated cells was removed from the incubator after 9 days, while a comparison dish containing unirradiated cells was incubated for 10 days. The cells were fixed by methanol and strained by Giemsa stain. Then, the number of colonies formed were counted.
The survival rate was calculated with using the data of the unirradiated cells as control.

[4] = hardly administered in an effective amount; cited from earlier work
[5] = administered in human beings; cited from earlier work
[6] = system: hypoxic cells; details: compared with no Misonidazole; cited from earlier work

Compound `O=[N+]([O-])c1nccn1CC(F)COCC(O)CO` (stereo not drawn) [(1), 1-(2'-fluoro-4'-oxa-6',7'-dihydroxyheptyl)-2-nitroimidazole] has an ER in vitro [1] of 1.49, an LD50 [2] of 2700 mg/kg and an ER in vivo [3] of 1.38.
Work on `O=[N+]([O-])c1nccn1CC(F)COCCO` (stereo not drawn) [(11), 1-(2'-fluoro-4'-oxa-6'-hydroxyhexcyl)-2-nitroimidazole] yielded an ER in vitro [1] of 1.66 and an ER in vivo [3] of 1.52.
`NC(=O)CCNC(=O)C(F)(F)Cn1ccnc1[N+](=O)[O-]` [(22), 3-[3'-(2"-nitroimidazolyl)-2',2'-difluoropropionylamino]propionic acid amide] showed an ER in vitro [1] of 1.46, an LD50 [2] of 2800 mg/kg and an ER in vivo [3] of 1.58.
`NC(=O)C(F)(F)CNC(=O)C(F)(F)Cn1ccnc1[N+](=O)[O-]` [(24), 3-[3'-(2"-nitroimidazolyl)-2',2'-difluoropropionylamino]-2,2-difluoropropionic acid amide] showed an ER in vitro [1] of 1.76, an LD50 [2] of 2600 mg/kg and an ER in vivo [3] of 1.41.
`NC(=O)C(F)(F)Cn1ccnc1[N+](=O)[O-]` [(28), 3-(2'-nitroimidazolyl)-2,2-difluoropropionic acid amide] showed an ER in vitro [1] of 1.48, an LD50 [2] of 1100 mg/kg and an ER in vivo [3] of 1.32.
In the case of `O=C(COCC(F)(F)Cn1ccnc1[N+](=O)[O-])NCCO` [(43), 2[3'-(2"-nitroimidazolyl)-2',2'-difluoropropoxy]acetic acid hydroxyethylamide], the ER in vitro [1] is reported as 1.54, the LD50 [2] is reported as greater than 2000 mg/kg and the ER in vivo [3] is reported as 1.38.
With `O=C(COCC(F)(F)Cn1ccnc1[N+](=O)[O-])NO` [(44)] the ER in vitro [1] was 1.68 and the ER in vivo [3] was 1.48.
`O=C(NCCO)C(F)(F)COCC(F)(F)Cn1ccnc1[N+](=O)[O-]` [(45), 3-[3'-(2"-nitroimidazolyl)-2',2'-difluoropropoxy]-2,2-difluoropropionic acid hydroxyethylamide] showed an ER in vitro [1] of 1.63, an LD50 [2] greater than 1600 mg/kg and an ER in vivo [3] of 1.40.
`NC(=O)C(F)(F)COCC(F)(F)Cn1ccnc1[N+](=O)[O-]` [(46), 3-[3'-(2"-nitroimidazolyl)-2',2'-difluoropropoxy]2,2-difluoropropionylamide] gave an ER in vitro [1] of 1.58 and an ER in vivo [3] of 1.45.
For `O=C(CCNC(=O)C(F)(F)Cn1ccnc1[N+](=O)[O-])NCCO` [(47), 3-[3'-(2"-nitroimidazolyl)-2',2'-difluoropropionamido]propionic acid hydroxyethylamide], the ER in vitro [1] was 1.43, the LD50 [2] was greater than 2000 mg/kg and the ER in vivo [3] was 1.38.
`NC(=O)CNC(=O)C(F)(F)Cn1ccnc1[N+](=O)[O-]` [(48)] showed an ER in vitro [1] of 1.61, an LD50 [2] of 2200 mg/kg and an ER in vivo [3] of 1.49.
Work on `COC(=O)OCCNC(=O)C(F)(F)Cn1ccnc1[N+](=O)[O-]` [(51), methyl 3-(2'-nitroimidazolyl)-2,2-difluoropropionamidoethoxyformate] yielded an LD50 [2] greater than 3000 mg/kg.
For `COCC(O)Cn1ccnc1[N+](=O)[O-]` (stereo not drawn) [Comparative (1), 1-(2-Nitro-1-imidazolyl)-3-methoxy-2-propanol], the ER in vitro [1] is given as 1.50, the neurotoxicity [4] is given as “strong neurotoxicity” and the ER in vivo [3] is given as 1.43. The “sensitizing effect in human beings” value [5] was “No sensitizing effect was confirmed” and the “hypoxic cell sensitizing effectiveness” value [6] was “about twice as effective as when no Misonidazole is used”.
